The test system of one data set is p21. Put plainly: qRT-PCR for p21. The following applies: emetine 75 nM, infected high-density cells. The format is cell-based, human. The procedure: Total RNA was isolated from cultured cells using RNeasy Mini kit (Qiagen). RevertAid first strand cDNA synthesis kit (Fermentas life sciences, Cromwell Park, MD) was used to synthesize first strand cDNA from total RNA using oligo-dT primers. Negative RT reactions were included to ensure the specificity of qRT-PCR reactions. Synthesis of first strand cDNA from mRNA template was carried out at 42°C for 1 h. Quantitative RT-PCR was performed in triplicates using specific primers for p21 (F: 5’ […] 3’; R: 5’ […] 3’) and SYBR green (Fermentas life science) with two-step cycling protocol (95°C for 15 s, 60°C for 1 min). GAPDH (F: 5’ […] 3’; R: 5’ […] 3’) was used as the internal control.
For orientation: Quantitative PCR measures a nucleic acid by following its amplification.

A further data set has as its system MCMV. The procedure: For infection experiments BALB/c mice, 4–6 weeks old, were purchased from Harlan Laboratories (Indianapolis, Indiana). The Animal Care and Use Committee of Johns Hopkins University approved the experimental procedures. […] Mice were infected intraperitoneally with 10^6 PFU/mice (0.1 mL in 0.8% saline). Control mice received 0.1 ml of saline intraperitoneally. […] GCV was administered intraperitoneally twice daily. […] Control and infected mice received equivalent volumes of saline. Mice were sacrificed at day 14 after infection. Blood samples were collected by cardiac puncture. Salivary glands and liver were harvested and stored at -80°C. Organs were homogenized in DMEM with 4% FBS at a final concentration of 100 mg/mL. Two million MEFs were seeded into 24-well plates. From each sample, 5% of the salivary gland homogenate or 10% of the liver homogenate was used for infection of MEFs in triplicates. Plaques were counted after three days. Whole blood viral load was measured at day 14 by real-time PCR of the glycoprotein B (gB) gene. DNA was extracted using the DNA blood mini kit (Qiagen, Georgetown, MD).

The next data set relates to HSV1- KOS/Dlux/oriS. Put plainly: HSV-1 luciferase assay in HFFs. It counts as cell-based, herpesvirus 1 (HSV-1). The following applies: Human alphaherpesvirus 1, read-out: Mean EC50 ± SD. The procedure: The pp28-luciferase HCMV Towne and a GCV-resistant pp28-luciferase were used. The recombinant viruses express luciferase under the control of the late CMV gene promoter, pp28. Luciferase expression is activated 48–72 hours post infection (hpi). The recombinant viruses provide a highly-sensitive reporter system which correlates with plaque reduction assay. The Towne HCMV strain (ATCC VR-977) was used for plaque reduction, quantitative reverse transcriptase PCR (qRT-PCR), and immunoprecipitation assays. Human herpes virus strains were: luciferase HSV1- KOS/Dlux/oriS [52] and clinical isolates of HSV2. The clinical isolates were provided by the clinical microbiology laboratory with no identifiers that can link to a specific subject. Murid Herpesvirus (MCMV: ATCC VR-1399) was used for infection of mouse embryonic fibroblasts (MEFs) and mice.
Human Foreskin Fibroblasts (HFFs) passage 12–16 (ATCC, CRL-2088) and mouse embryonic fibroblasts (MEFs) passage 9–14 (ATCC, CRL-1658) were grown in Dulbecco's Modified Eagle Medium (DMEM) containing 10% fetal bovine serum (FBS) (Gibco, Carlsbad, CA) in a 5% CO2 incubator at 37°C. […] Luciferase activity was measured 72 h following second cycle infection. […] After incubation at 37°C for 10 days (for HCMV), 3 days for MCMV or 2 days (for HSV), the overlay was removed and plaques were counted after crystal violet staining.

In a further data set the target is T1, RPS14-MDM2 (Homo sapiens, UniProt P62263).
T1 construct: endogenous in cells; host or cells: HFFs (ATCC CRL-2088), infected with HCMV Towne, MG132-treated
Put plainly: Co-immunoprecipitation RPS14-MDM2. The following applies: emetine 75 nM, infected high-density cells, 24 hpi, MG132. The format is cell-based. The procedure: Non-infected, infected or emetine-treated HFFs were treated with MG132 (10 μM) for 12h. Cells were harvested after 24 hpi and lysed with IP buffer containing 150 mM NaCl, 50mM Tris pH 7.5, 2 mM EDTA, 0.5% TritonX-100 and 0.5% NP-40-40. 1 mg of lysate was precleared with bead slurry for 30 min. The precleared lysates were incubated with anti-MDM2 (2 μg) antibody overnight. The antibody complexes were isolated using protein A/G beads (Santa Cruz), washed three times with 50% IP buffer. The immunoprecipitate-protein A/G beads were boiled in SDS sample buffer, and the supernatant was analyzed on SDS-PAGE gels after immunoblotting as described previously. 1% of the cell lysate used for IP was loaded on gels as ‘Input’. Confirmatory reverse IPs were performed as described in each experiment. Isotype control antibodies included: rabbit IgG polyclonal, mouse IgG2a kappa and mouse IgG2b kappa monoclonal (Abcam). Mouse monoclonal RPS19 antibody (Abcam) served as an additional negative control for the IPs. Densitometry analysis was performed to determine relative ratio of immunoprecipitated protein to its input level.

Another data set deals with HCMV Towne. Put plainly: HCMV plaque reduction assay in HFFs. The format is cell-based, Human Cytomegalovirus. The procedure: Human Foreskin Fibroblasts (HFFs) passage 12–16 (ATCC, CRL-2088) and mouse embryonic fibroblasts (MEFs) passage 9–14 (ATCC, CRL-1658) were grown in Dulbecco's Modified Eagle Medium (DMEM) containing 10% fetal bovine serum (FBS) (Gibco, Carlsbad, CA) in a 5% CO2 incubator at 37°C. Infection with HCMV or HSV was performed in HFFs, and infection with mouse CMV was performed in MEFs. For HCMV, cells were seeded in either a 96-well plate or 100 mm culture plates (Corning Costar, Sigma Aldrich) at 0.5 or 2 million cells /plate. Following 90 minute adsorption, media was removed and cells were washed with PBS. Media containing 4% FBS and compounds were added to each well. Infected treated HFFs were collected at 72 hpi and lysates were assayed for luciferase activity using a luciferase assay kit (Promega, Madison, WI) on GloMax-Multi+ Detection System (Promega). In second cycle assays, supernatants were collected from all conditions of the first cycle at 96 hpi and used for infection of fresh HFFs in 96-well plates. Luciferase activity was measured 72 h following second cycle infection. For HSV1-KOS/Dlux/oriS, a luciferase assay was performed at 24 hpi. Plaque assays were performed with clinical isolates of HSV2 and HCMV Towne (ATCC VR-977). HFFs were seeded at […] in 12-well plates and infected 24 h later with HSV2 at 200 PFU/well. For HCMV or MCMV, HFFs or MEFs were seeded at 0.5 or 2 million cells /plate in a 12-well plate and infected 24 hours later at 100 PFU/well. Following virus adsorption (60 min and 90 min for HSV and HCMV, respectively), virus was aspirated, and DMEM containing 4% fetal bovine serum (FBS) with (for HSV) or without (for HCMV/MCMV) 0.5% carboxymethyl-cellulose, were added with the compounds at indicated concentrations into triplicate wells. After incubation at 37°C for 10 days (for HCMV), 3 days for MCMV or 2 days (for HSV), the overlay was removed and plaques were counted after crystal violet staining.

Where [1] appears, read: all treatment regimens (0.1 or 1 mg/kg oral, from 24 or 72 hpi), day 14.

The source of these data is PMC4919066 (PLoS Pathogens, 2016).

Where a name gives a salt, the structure may show the parent alone.

As usually defined, the EC50 is the concentration at which the effect is half-maximal. As for `CC[C@H]1CN2CCc3cc(OC)c(OC)cc3[C@@H]2C[C@@H]1C[C@H]1NCCc2cc(OC)c(OC)cc21` [emetine, emetine dihydrochloride hydrate], the “increase in p21 mRNA” value in the data set on p21 (24 hpi) is on record as 5.4 fold; in the data set on p21 (72 hpi) it was 6.7 fold. Also, the “decrease in MCMV DNA copy number in blood compared to infected control” value with MCMV (0.1 or 1 mg/kg orally every three days from 24 h or 72 h after infection, day 14) was in the range of 2 to 4 log10. For the same compound, the “reduction of viral PFUs in liver” value in the data set with MCMV (setting [1]) is 3–6 fold. For the same compound, the “reduction of viral PFUs in salivary gland” value in the data set with MCMV (setting [1]) is listed as 4–6 fold. Moreover, the “tolerability in mouse CMV model” value with MCMV (mouse) is recorded as “well-tolerated”. Also, the half-maximal effective concentration (EC50) came out at 0.056 µM in the data set on HSV1- KOS/Dlux/oriS and 0.068 µM in the data set on HCMV Towne (Human betaherpesvirus 5, read-out: Mean EC50 ± SD). Besides, the “interaction between RPS14 and MDM2” value on RPS14-MDM2 was “strongly induced the interaction between RPS14 and MDM2”. Also, in the data set on HCMV Towne (emetine 75 nM, 2 million cells/plate as compared to 0.5 million cells/plate), the “reduction in the number and size of plaques” value is 30 fold.
